Experimental data from patent US20060009448A1, “Metabolites of 4-(3,4-dichloro-phenyl)-2-[2-(4-methyl-piperazin-1-yl)-benzylidene]thiomorpholin-3-one” (Pfizer Inc., priority 2004, published 2006).

Assay: Percentages of plasma metabolites in human after oral administration of [14C]-Formula I (HPLC radioprofiling of pooled plasma)
Type: in vivo
Description: Six healthy male human subjects were administered a single 10 mg (free base) oral dose of 4-(3,4-dichloro-phenyl)-2-[2-(4-methyl-piperazin-1-yl)-benzylidene]-thiomorpholin-3-one containing 100 μCi of [^14C]-4-(3,4-dichloro-phenyl)-2-[2-(4-methyl-piperazin-1-yl)-benzylidene]-thiomorpholin-3-one (Lot# 49,800-103-1, specific activity 15.66 mCi/mmol, radiochemical purity >99%). [drawing 9]
a). Blood sufficient to provide approximately 10 mL plasma for 4-(3,4-dichloro-phenyl)-2-[2-(4-methyl-piperazin-1-yl)-benzylidene]-thiomorpholin-3-one metabolite identification was collected in heparinized tubes at the following approximate times: 2, 8, 24, 48, 96, and 192 hours after drug administration. Samples were centrifuged at approximately 4° C. and the plasma was stored in appropriately labeled, screw-capped opaque polypropylene tubes at −20° C. until analysis.
Plasma samples were pooled by human subject separately according to the method published by Raid, et al. (Raid, et al: Pharm. Res. (1991), 8(4), 541-543). Aliquots (1 mL) from each pool were extracted with 5 mL of acetonitrile. The mixtures were vortex-mixed for 3 minutes, sonicated for 30 minutes and then centrifuged for 7 minutes at 20° C. Aliquotes of the supernatant (2×500 μL) were counted to determine recovery. Approximately 95.1% of the radioactivity was recovered in the supernatants. The supernatants were combined according to subject number to two equal sets and dried in the Turbovap at room temperature. One set of the dried residue (six subjects) was reconstituted in 150 μL of 10 mM ammonium acetate (pH 4.0)/methanol/dimethyl sulfoxide (1.5:1.5:1) and aliquots of 100 μL were injected onto HPLC-Arc system for profiling. The other set of dried residues were combined and reconstituted in 300 μL of 10 mM ammonium acetate (pH 4.0)/methanol/dimethyl sulfoxide (1.5:1.5:1) and 90 μL was injected onto HPLC-MS/MS system for metabolite identification.

- % of Total Radioactivity in Plasma, Subject#1 (human Subject#1, single 10 mg oral dose of [14C]-parent compound): 60.6%
- % of Total Radioactivity in Plasma, Subject#2 (human Subject#2, single 10 mg oral dose of [14C]-parent compound): 57.6%
- % of Total Radioactivity in Plasma, Subject#3 (human Subject#3, single 10 mg oral dose of [14C]-parent compound): 62.8%
- % of Total Radioactivity in Plasma, Subject#4 (human Subject#4, single 10 mg oral dose of [14C]-parent compound): 72.2%
- % of Total Radioactivity in Plasma, Subject#5 (human Subject#5, single 10 mg oral dose of [14C]-parent compound): 69.6%
- % of Total Radioactivity in Plasma, Subject#6 (human Subject#6, single 10 mg oral dose of [14C]-parent compound): 68.3%
- % of Total Radioactivity in Plasma, Mean (mean of six human subjects, single 10 mg oral dose of [14C]-parent compound): 65.2%
SMILES: CN1CCn2c(c(C3SCCN(c4ccc(Cl)c(Cl)c4)C3=O)c3ccccc32)C1 (stereo not shown) [Metabolite M10A]
